Reference: US20070203225A1, “METHOD OF INCREASING ENDOGENOUS ADIPONECTIN PRODUCTION AND LEPTIN PRODUCTION” (priority 2001, published 2007)
Entries after “also recorded” stand apart in the source; their conditions may differ.

How the values were obtained:
Assay type in all cases: cell-based
isolated rat adipocytes [1] = assay: Glucose oxidation: incorporation of 14C-glucose into CO2 by isolated rat adipocytes
Protocol: Substrate Oxidation: Oxidation is measured using a modification of the method of Rodbell (Rodbell, 1964) and a modification of the cell culture system described by Bottcher and Furst (Bottcher, 1996). Briefly, adipocytes are isolated, counted and sized as previously described. Adipocytes are plated as described except they are placed in a sterile 20 ml scintillation vial instead of a well. Two ml of treatment media containing [U-^14C]-substrate (0.3 uCi/ml; glucose, fatty acids, malate, fumarate, pyruvate) is added to the vials. The vials are filled with 95% O2-5% CO2 gas and capped with rubber stoppers fitted with a hanging center well. Each well contains a 2×8 cm strip of Whatman No. 1 paper. Vials are maintained at 37° C. for 48 hr. After 48 hr, a sample of media is removed from each vial using a 4 inch, 23 gauge needle. Using another syringe and 23 gauge needle, 200 ul of sodium benzethonium is placed onto the paper strip and hanging well to capture CO2. Concentrated sulfuric acid is added to the vial in order to lyse cells and liberate all CO2 from the collagen matrix. After 24 hours, the hanging well and paper are transferred to another vial containing scintillation fluid and counted. The data are expressed as % DPM recovered as CO2 of the total DPM remaining in the media at 48 hours and as micromoles of substrate oxidized over time.

isolated rat adipocytes [2] = assay: Lactate production and proportion of glucose anaerobically metabolized to lactate in isolated cultured rat adipocytes
Protocol: (§1) Cell isolation/preparation: Adipocytes are prepared from epididymal fat pads from male Sprague-Dawley rats weighing 300-600 g. Epididymal fat depots are resected from halothane anesthetized rats under aseptic conditions and adipocytes are isolated by collagenase digestion by the Rodbell method (Rodbell M. Metabolism of isolated fat cells. I. Effects of hormones on glucose metabolism and lipolysis. J Biol Chem. 1964; 239: 375-380), with minor modifications as previously described (Mueller W M, Gregoire F M, Stanhope K L, Mobbs C V, Mizuno T M, Warden C H, Stem J S, Havel P J. Evidence that glucose metabolism regulates leptin secretion from isolated adipocytes. Endocrinology 139: 551-558, 1998; Mueller W M, Stanhope K L, Gregoire F, Evans J L, Havel P J. Effects of metformin and vanadium on leptin secretion from cultured rat adipocytes. Obesity Res. 8: 530-539, 2000; Medina E A, Stanhope K L, Mizuno T M, Mobbs C V, Gregoire F, Hubbard N E, Erickson K L, Havel P J. Effects of tumor necrosis factor alpha on leptin secretion and gene expression: relationship to changes of glucose metabolism in isolated rat adipocytes. Int J Obes Relat Metab Disord. 23: 896-903, 1999.). The isolated adipocytes are then incubated for 30 minutes at 37 C before being plated and cultured on Matrigel-coated plates.
(§2) Adipocyte Culture: Adipocytes are maintained in culture anchored to a basement membrane matrix (Matrigel, Becton Dickinson, Franklin Lakes, N.J.) or collagen from Cohesion Technologies, (Palo Alto, Calif.). Although all in vitro systems have inherent advantages and disadvantages, advantages of this system compared with cultures containing free-floating adipocytes are that the matrix simulates their normal basement membrane attachment and that the cells are maintained in close proximity to each other, allowing direct cell to cell contact. Together the cell contact and basement membrane attachment help to maintain differentiation, since adipocytes have a strong tendency to dedifferentiate in long-term (>24 h) culture. In addition, the matrix and the small amount of serum in the media both contain growth factors, which are also likely to help in maintaining cell differentiation. Furthermore, the adipocytes in this system are not exposed to toxic levels of oxygen at the interface of the media and the incubator atmosphere, as opposed to free-floating adipocytes which aggregate at the surface of the media. An advantage of the system over those containing minced adipose tissue is that all of the cells in the culture are equally exposed to the nutrients and the oxygen dissolved in the media. Thus, although clearly different from the in vivo situation, this system provides a more physiological environment than most systems for maintaining adipocytes in long-term culture.
(§3) In culturing each suspension, Matrigel is first thawed on ice to a liquid and uniformly applied to the surface of culture dishes (300 μl Matrigel/35 mm well). After the incubation period, 150 μl of the adipocyte suspension (2:1 ratio of packed cells to media) are plated on the Matrigel or collagen matrix. Adipocytes from each suspension are thoroughly mixed with a transfer pipette before plating to insure that a similar number adipocytes with a similar size distribution are added to the control and experimental wells for each suspension. The warmth of the added cells and buffer causes the Matrigel to gel around the adipocytes, or the neutralization of the acidic pH of the collagen solution to 7.0 solidifies the collagen, and both of these techniques effectively anchor the adipocytes to the culture dish. After a 30 minute incubation at 37° C., 2 ml of warm culture medium is added. The cells are maintained in an incubator at 37° C. for 96 hours with 6% CO2. Aliquots of adipocytes from each animal are divided into wells, with the different concentrations of insulin or other agents to be tested. In each plate an appropriate control well contains adipocytes from the same animal. […]

isolated rat adipocytes [3] = assay: Leptin secretion/production by isolated cultured rat adipocytes (RIA)
Protocol: as §1, §2, §3

isolated rat adipocytes [4] = assay: Glucose utilization (uptake) by isolated cultured rat adipocytes; settings: for effect on glucose utilization (in words): insulin 0.16 to 1.6 nM
Protocol: as §1, §2, §3

isolated rat adipocytes [5] = assay: Incorporation of glucose carbon into triglyceride in cultured adipocytes
Protocol: Incorporation of Glucose Carbon into Triglyceride: To measure glucose incorporation into triglyceride, cultures are exposed to media containing 0.01 uCi/ml of ^14C-glucose. After 96 hr, media and extracellular lipid is removed from the well and methanol added. Then scrape the collagen-cell matrix from the well and transfer into a 50 ml glass tube. Rinse the well and scrape again in methanol to assure complete transfer of cells. Total triglycerides will be extracted using the Folch method (Folch, 1957). An aliquot of the lipid extract will be placed into vials containing scintillation fluid then radioactivity will be measured.
The first measurement is used to calculate the amount of glucose incorporated into triglycerides. Another aliquot of the lipid extract is placed into pre-weighed aluminum pans to determine the total amount of triglyceride per well. The remaining lipid is saponified and acidified to separate the glycerol and fatty acids. An aliquot of the lipid extract is placed into vials containing scintillation fluid and counted. This second count represents the ^14C-glucose incorporation into fatty acids. By subtraction, the amount that was incorporated into triglyceride though glycerol is also determined. Glucose incorporation into triglyceride and into the fatty acid portion of the triglyceride are calculated by multiplying disintegration per min by total ug of glucose/well over the total DPM/well.

[6] = DTNB 100.0 μM + insulin 0.48 nM vs control (insulin only)
[7] = DTNB 100.0 μM + insulin 0.48 nM, isolated rat adipocytes, 96 h culture
[8] = DTNB 100 μM, NEM 0.1 μM, DCA 2 mM

O=C(O)c1cc(SSc2ccc([N+](=O)[O-])c(C(=O)O)c2)ccc1[N+](=O)[O-] [DTNB, 5,5′-Dithiobis(2-nitrobenzoate)]
effect on absolute and proportional glucose oxidation, labeled glucose into CO2 (in words) (isolated rat adipocytes [1]; DTNB (50 μM in FIG. 20) and DCA (2 mM), percent of control): increase
Change in Parameter: Glucose to Lactate (%) (isolated rat adipocytes [2]; [6]): −9.5 ± 1.0%
Change in Parameter: Lactate Produced (μg) over 96 h (isolated rat adipocytes [2]; [6]): -53 ± 25 µg
Glucose to Lactate (%) (isolated rat adipocytes [2]; [7]): 13.1 ± 1.4%
Lactate Produced (μg) over 96 h (isolated rat adipocytes [2]; [7]): 179 ± 22 µg
effect on glucose not converted to lactate or incorporated into TG (OTHER; glucose flux into oxidation), by subtraction (in words) (isolated rat adipocytes [2]; [8]): increased
effect on proportion of glucose anaerobically metabolized to lactate (in words) (isolated rat adipocytes [2]; [8]): decreased
effect on lactate production (in words) (isolated rat adipocytes [2]; DTNB 100 μM, NEM 0.1 μM, DCA 0.1 to 5.0 mM): without any increase
% ΔLeptin Produced over 96 h (isolated rat adipocytes [3]; [6]): +57.3 ± 5.8%
% Δ[Leptin] (ng/ml) at 96 h (isolated rat adipocytes [3]; [6]): +60.2 ± 8.3%
Change in Parameter: Leptin (ng) Produced over 96 h (isolated rat adipocytes [3]; [6]): +18.4 ± 2.3 ng
Change in Parameter: [Leptin] (ng/ml) at 96 h (isolated rat adipocytes [3]; [6]): +6.3 ± 0.8 ng/ml
Leptin (ng) Produced over 96 h (isolated rat adipocytes [3]; [7]): 55.6 ± 2.9 ng
[Leptin] (ng/ml) at 96 h (isolated rat adipocytes [3]; [7]): 17.2 ± 0.9 ng/mL
effect on leptin production/secretion (in words) (isolated rat adipocytes [3]; PDH kinase inhibitors DTNB, NEM, DCA, cultured adipocytes): most potent stimulator; also recorded: increase
increase of leptin production/secretion (isolated rat adipocytes [3]; PDH kinase inhibitors vs control: DTNB 100 μM, NEM 0.1 μM, DCA 2 mM, cultured adipocytes): approximately 60%
Change in Parameter: Glucose Uptake (μg) over 96 h (isolated rat adipocytes [4]; [6]): +348 ± 114 μg
Glucose Uptake (μg) over 96 h (isolated rat adipocytes [4]; [7]): 1384 ± 94 µg
effect on total / insulin-mediated glucose utilization (in words) (isolated rat adipocytes [4]; [8]): increased
effect on proportion of glucose incorporated into TG (in words) (isolated rat adipocytes [5]; [8]): without affecting

insulin
increase of proportional oxidation of glucose (isolated rat adipocytes [1]; insulin 1.6 nM): 43.6±10.6%
effect on amount of glucose oxidized to CO2 (in words) (isolated rat adipocytes [1]; insulin 1.6 nM, n=18): doubles; also recorded: markedly increases
effect on proportion of glucose converted to lactate (in words) (isolated rat adipocytes [2]; insulin 0.16 to 1.6 nM): decreases
effect on proportion of glucose not converted to lactate or triglyceride (OTHER), by subtraction (in words) (isolated rat adipocytes [2]; insulin 0.16 to 1.6 nM): increases
effect on leptin secretion (in words) (isolated rat adipocytes [3]; insulin 0.16 to 1.6 nM): concentration-dependent increases; also recorded: concentration dependent increase
effect on glucose utilization (in words) (isolated rat adipocytes [4]): concentration dependent increase
effect on glucose utilization (in words) (isolated rat adipocytes [4]; listed as Insulin): increases
effect on proportional incorporation of glucose into triglyceride (in words) (isolated rat adipocytes [5]; insulin 0.16 to 1.6 nM, listed as Insulin): does not affect; also recorded: does not alter
